According to PMC11555526, “Development of 2-Aminoadenine-Based Proteolysis-Targeting Chimeras (PROTACs) as Novel Potent Degraders of Monopolar Spindle 1 and Aurora Kinases” (ACS Pharmacology & Translational Science, 2024):

How the values were obtained:
MV4-11 cells (naive) = experiment: alamarBlue cell viability assay; assay type: cell-based, human; settings: 72 h treatment, MV4-11 cells (naive); for EC50: read-out: EC50 (concentration that decreases cell viability by 50%)
Procedure: Finally, to study the effect of the compounds on cancer cell survival, MV4-11 cells were treated with various concentrations of the chimeras and the cell viability was assessed after 72 h. […] As opposed to the parent inhibitor MPS1-IN-3, its derivatives except 40 were not cytotoxic (Figure S7B, Table 5). […] In addition, most of the SF1-based derivatives affected the viability of MV4-11 cells in nanomolar concentrations (Table 5).
For the alamarBlue cell viability assay, cells were seeded in 96-well plates and treated with indicated concentrations of the compounds or vehicle. A few hours before the experimental end point (72 h, unless otherwise stated), the cells were incubated with the alamarBlue reagent. Finally, fluorescence (excitation: 550 nm and emission: 600 nm) or absorbance (570 nm with reference at 600 nm) was measured on a Tecan Spark Multiplate reader (Tecan).

[1] = biological target: T1, TTK (MV4-11^HiBiT-TTK cells) (Homo sapiens, UniProt P33981); experiment: HiBiT assay, TTK degradation; assay type: cell-based; parameters: key to Dmax (maximal degradation) TTK: compounds with degradation less than 15% reported as “inactive”; settings: 6 h treatment, MV4-11^HiBiT-TTK cells; for DC50: read-out: DC50 (half-maximal degradation concentration) TTK
T1 construct: expressed in transfected cells; host or cells: MV4-11, lentiviral transduction (pRRL-PGK-HiBiT entry vector)
T1 sequence (P33981 1-857): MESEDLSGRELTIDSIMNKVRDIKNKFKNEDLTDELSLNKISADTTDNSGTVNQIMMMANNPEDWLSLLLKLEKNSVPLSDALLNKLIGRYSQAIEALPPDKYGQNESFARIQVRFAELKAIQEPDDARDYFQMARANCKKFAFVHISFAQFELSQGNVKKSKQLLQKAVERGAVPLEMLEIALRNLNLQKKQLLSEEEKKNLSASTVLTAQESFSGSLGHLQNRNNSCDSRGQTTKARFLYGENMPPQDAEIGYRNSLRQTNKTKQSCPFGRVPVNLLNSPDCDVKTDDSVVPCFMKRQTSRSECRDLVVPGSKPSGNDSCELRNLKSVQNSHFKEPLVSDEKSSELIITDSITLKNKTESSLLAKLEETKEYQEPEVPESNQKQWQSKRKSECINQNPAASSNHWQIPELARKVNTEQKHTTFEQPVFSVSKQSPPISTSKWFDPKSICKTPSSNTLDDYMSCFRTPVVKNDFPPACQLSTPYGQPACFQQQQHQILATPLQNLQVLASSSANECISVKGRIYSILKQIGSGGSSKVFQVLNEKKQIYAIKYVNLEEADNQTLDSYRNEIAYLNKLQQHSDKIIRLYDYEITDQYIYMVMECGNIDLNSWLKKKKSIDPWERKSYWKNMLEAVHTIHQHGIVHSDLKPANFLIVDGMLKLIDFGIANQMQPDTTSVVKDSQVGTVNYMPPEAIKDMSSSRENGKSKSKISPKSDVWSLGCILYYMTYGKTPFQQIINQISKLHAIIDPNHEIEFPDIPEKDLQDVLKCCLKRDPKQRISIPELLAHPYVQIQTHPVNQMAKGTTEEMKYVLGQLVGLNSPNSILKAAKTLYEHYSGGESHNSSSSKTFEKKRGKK
Procedure: (§1) The effects of the synthesized compounds on AURKA, AURKB, and TTK mitotic kinases were then assessed in cellular systems. For this, HiBiT cell lines were generated for all three mitotic kinases. A small 11 amino acid peptide fragment of luciferase (HiBiT) was fused to the coding sequence of the proteins and stably transduced in the MV4-11 cell line (MV4-11^AURKA-HiBiT, MV4-11^AURKB-HiBiT, and MV4-11^HiBiT-TTK).
(§2) The stable cell lines MV4-11^AURKA-HiBiT, MV4-11^AURKB-HiBiT, and MV4-11^HiBiT-TTK cells were generated by lentiviral infection. Lentivirus was produced using the respective HiBiT vector, plasmids psPAX2, and pMD2.G in HEK293 cells. The virus supernatant was filtered and MV4-11 cells were doubly infected with the supernatant. The cells were selected after 48 h of infection until the control cells were dead to get the stable cell line.
(§3) The cells stably expressing HiBiT-tagged protein were seeded into 96-well plates and treated with serial dilutions of compounds for the indicated time points. At the end point, the assay was performed using the Nano-Glo HiBiT Lytic Detection System (Promega) according to the manufacturer’s instruction. Luminescence was measured on a GloMax 96 Microplate Luminometer (Promega) or a Tecan Spark Multiplate reader (Tecan). DC50 was calculated using concentrations showing sigmoidal behavior with the dose–response (four parameters) equation in Prism (GraphPad).

[2] = biological target: T2, AURKA (MV4-11^AURKA-HiBiT cells) (Homo sapiens, UniProt O14965); experiment: HiBiT assay, AURKA degradation; assay type: cell-based; parameters: key to Dmax (maximal degradation) AURKA: compounds with degradation less than 15% reported as “inactive”; settings: for Dmax (maximal degradation) AURKA / DC50 / DC50 (half-maximal degradation concentration) AURKA: 6 h treatment, MV4-11^AURKA-HiBiT cells; for DC50: read-out: DC50 (half-maximal degradation concentration) AURKA
T2 construct: expressed in transfected cells; host or cells: MV4-11, lentiviral transduction
T2 sequence (O14965 1-403): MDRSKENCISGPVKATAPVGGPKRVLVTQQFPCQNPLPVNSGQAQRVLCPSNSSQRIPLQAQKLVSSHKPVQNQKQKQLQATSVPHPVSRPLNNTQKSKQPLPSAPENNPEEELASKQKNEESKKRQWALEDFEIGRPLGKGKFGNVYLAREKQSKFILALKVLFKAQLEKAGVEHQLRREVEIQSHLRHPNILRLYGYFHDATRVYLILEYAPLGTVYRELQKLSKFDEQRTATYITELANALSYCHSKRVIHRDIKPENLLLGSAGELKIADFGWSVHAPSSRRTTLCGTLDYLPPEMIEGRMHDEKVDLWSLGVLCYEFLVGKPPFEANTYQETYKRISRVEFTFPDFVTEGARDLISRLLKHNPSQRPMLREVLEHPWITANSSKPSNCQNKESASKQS
Procedure: as §1, §2, §3

[3] = biological target: T3, AURKB (MV4-11^AURKB-HiBiT cells) (Homo sapiens, UniProt Q96GD4); experiment: HiBiT assay, AURKB degradation; assay type: cell-based; parameters: key to Dmax (maximal degradation) AURKB: compounds with degradation less than 15% reported as “inactive”; settings: 6 h treatment; for DC50: read-out: DC50 (half-maximal degradation concentration) AURKB
T3 construct: expressed in transfected cells; host or cells: MV4-11, lentiviral transduction (pRRL-PGK vector)
Procedure: as §1, §2, §3

T3 sequence (Q96GD4 1-345 isoform Q96GD4-5): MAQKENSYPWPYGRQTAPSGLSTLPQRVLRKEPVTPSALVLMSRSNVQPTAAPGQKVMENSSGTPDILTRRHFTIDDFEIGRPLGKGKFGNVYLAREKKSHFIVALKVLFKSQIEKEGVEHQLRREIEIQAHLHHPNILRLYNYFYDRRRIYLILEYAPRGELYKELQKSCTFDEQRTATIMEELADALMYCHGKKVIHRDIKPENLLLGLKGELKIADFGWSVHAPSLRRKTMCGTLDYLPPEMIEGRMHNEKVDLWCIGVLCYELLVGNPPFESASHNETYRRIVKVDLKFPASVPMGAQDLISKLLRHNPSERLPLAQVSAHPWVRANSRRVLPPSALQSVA

Structure (SMILES)	EC50 (MV4-11 cells (naive)) [nM]	Dmax (maximal degradation) TTK [1]	Dmax (maximal degradation) AURKA [2]	DC50 [2] [nM]	Dmax (maximal degradation) AURKB [3]	DC50 [1] [nM]	DC50 [3] [nM]	selectivity of AURKA degradation (DC50) relative to TTK ([2]; HiBiT, 6 h) [fold]	DC50 (half-maximal degradation concentration) TTK [1]	DC50 (half-maximal degradation concentration) AURKB [3]	EC50 (concentration that decreases cell viability by 50%) (MV4-11 cells (naive))	DC50 (half-maximal degradation concentration) AURKA [2]
COc1cc(N2CCC(OCC(=O)NCCCCNc3cccc4c3C(=O)N(C3CCC(=O)NC3=O)C4=O)CC2)ccc1Nc1nc(Nc2ccccc2S(=O)(=O)C(C)C)c2nc[nH]c2n1 (stereo not shown) [Compound 36]		inactive	inactive		inactive				– (compounds with degradation less than 25% were not calculated and reported as “–”)	– (compounds with degradation less than 25% were not calculated and reported as “–”)	— (compounds with decrease of cell viability less than 50% were not calculated and reported as “—”)	– (compounds with degradation less than 25% were not calculated and reported as “–”)
Cc1ncsc1-c1ccc(CNC(=O)[C@@H]2C[C@H](O)CN2C(=O)[C@@H](NC(=O)COCCOCC(=O)N2CCN(c3ccc(Nc4nc(Nc5ccccc5S(=O)(=O)C(C)C)c5nc[nH]c5n4)cc3)CC2)C(C)(C)C)cc1 [Compound 51]	421	73.95%	inactive		44.00%	993	1160					– (compounds with degradation less than 25% were not calculated and reported as “–”)
Cc1ncsc1-c1ccc(CNC(=O)[C@@H]2C[C@@H](O)CN2C(=O)[C@@H](NC(=O)CCC(=O)NCCCNC(=O)CCC(=O)N2CCN(c3ccc(Nc4nc(NC5CCCCC5)c5nc[nH]c5n4)cc3)CC2)C(C)(C)C)cc1 [Compound 56]	6820	34.20%	39.50%	6500	29.10%	1890	2560					
O=C1CCC(N2C(=O)c3cccc(NC(=O)CCCC(=O)N4CCN(c5ccc(Nc6nc(NC7CCCCC7)c7nc[nH]c7n6)cc5)CC4)c3C2=O)C(=O)N1 (stereo not shown) [Compound 13]	1210	27.70%	68.40%	94	30.60%	3	380					

Second part, led by results:

EC50 (MV4-11 cells (naive)) [nM]	Dmax (maximal degradation) TTK [1]	Dmax (maximal degradation) AURKA [2]	DC50 [2] [nM]	Dmax (maximal degradation) AURKB [3]	DC50 [1] [nM]	DC50 [3] [nM]	selectivity of AURKA degradation (DC50) relative to TTK ([2]; HiBiT, 6 h) [fold]	Structure (SMILES)	DC50 (half-maximal degradation concentration) TTK [1]	DC50 (half-maximal degradation concentration) AURKB [3]	EC50 (concentration that decreases cell viability by 50%) (MV4-11 cells (naive))	DC50 (half-maximal degradation concentration) AURKA [2]
1130	inactive	62.10%	1260	22.20%				CC(C)S(=O)(=O)c1ccccc1Nc1nc(Nc2ccc(N3CCN(C(=O)COCCOCC(=O)Nc4cccc5c4C(=O)N(C4CCC(=O)NC4=O)C5=O)CC3)cc2)nc2[nH]cnc12 (stereo not shown) [Compound 18]	– (compounds with degradation less than 25% were not calculated and reported as “–”)	– (compounds with degradation less than 25% were not calculated and reported as “–”)		
39	35.20%	74.55%	2.05	33.15%	42	154	21	CC(C)S(=O)(=O)c1ccccc1Nc1nc(Nc2ccc(N3CCN(C(=O)CCC(=O)Nc4cccc5c4C(=O)N(C4CCC(=O)NC4=O)C5=O)CC3)cc2)nc2[nH]cnc12 (stereo not shown) [Compound 15]				
	inactive	inactive		inactive				COc1cc(N2CCC(OCC(=O)NCCNc3cccc4c3C(=O)N(C3CCC(=O)NC3=O)C4=O)CC2)ccc1Nc1nc(Nc2ccccc2S(=O)(=O)C(C)C)c2nc[nH]c2n1 (stereo not shown) [Compound 34]	– (compounds with degradation less than 25% were not calculated and reported as “–”)	– (compounds with degradation less than 25% were not calculated and reported as “–”)	— (compounds with decrease of cell viability less than 50% were not calculated and reported as “—”)	– (compounds with degradation less than 25% were not calculated and reported as “–”)
	inactive	inactive		inactive				COc1cc(N2CCC(OCC(=O)NCCCNc3cccc4c3C(=O)N(C3CCC(=O)NC3=O)C4=O)CC2)ccc1Nc1nc(Nc2ccccc2S(=O)(=O)C(C)C)c2nc[nH]c2n1 (stereo not shown) [Compound 35]	– (compounds with degradation less than 25% were not calculated and reported as “–”)	– (compounds with degradation less than 25% were not calculated and reported as “–”)	— (compounds with decrease of cell viability less than 50% were not calculated and reported as “—”)	– (compounds with degradation less than 25% were not calculated and reported as “–”)
	16.10%	inactive		inactive				COc1cc(N2CCC(OCC(=O)NCCOCCOCCNc3cccc4c3C(=O)N(C3CCC(=O)NC3=O)C4=O)CC2)ccc1Nc1nc(Nc2ccccc2S(=O)(=O)C(C)C)c2nc[nH]c2n1 (stereo not shown) [Compound 38]	– (compounds with degradation less than 25% were not calculated and reported as “–”)	– (compounds with degradation less than 25% were not calculated and reported as “–”)	— (compounds with decrease of cell viability less than 50% were not calculated and reported as “—”)	– (compounds with degradation less than 25% were not calculated and reported as “–”)
